This is an account of results in patent publication US20060217405A1, “Interstitial cystitis treatment” (Indevus Pharmaceuticals, Inc., priority 2005, published 2006).

Data set [1] relates to interstitial cystitis patients. The conditions noted are these: cited from earlier work.
Data set [2] relates to bladder afferent nerves. Kind of data set: Intravesical trospium and carbachol experiments. Type of data set: in vivo. The conditions noted are these: for direct effect on interstitial cystitis: trospium at low dose. An excerpt: The action of trospium is unique because it has selective activity on the bladder urothelium and bladder afferent nerves. The local trospium bladder effect is on the afferent nerve rather than bladder smooth muscle. The effect of intravesical administered trospium was not blocked by pre treatment of capsaicin or resiniferatoxin. This indicates the afferent nerve effect is that of A-delta and not C-fibers.

In data set [3] the test system is animals. The conditions noted are these: animal studies; cited from earlier work.
Data set [4] deals with interstitial cystitis patients. The conditions noted are these: bladder instillation; cited from earlier work.
Data set [5] deals with patients. Kind of data set: Intravesicular instillation of trospium chloride in patients. Type of data set: in vivo, human. An excerpt:
Trospium chloride is a quaternary ammonium compound that concentrates in the urine primarily unchanged and is believed to have local antispasmodic activity. […] Therefore the use of trospium, especially by intravesicular instillation, is a novel treatment for interstitial cystitis with the very low potential for systemic side effects.

For data set [6] the following is noted: cited from earlier work.
The test system of data set [7] is female SD rats. Kind of data set: Cystometrogram (CMG) in anesthetized rats after intravesical instillation. The conditions noted are these: 0.5 mcg/ml, approx. 5 ml intravesical, 10-30 minutes, urethane anesthesia. The data set is classed as in vivo, rat. How it is done:
Baseline cystometrogram (CMG) is measured in a group of 6 female SD rats (250 grams). The rats are anesthetized utilizing urethane anesthesia at a rate of 1.2 g/kg. Trospium chloride at a concentration of 0.5 mcg/ml is administered by intravesical instillation. Approximately, 5 ml are instilled. The trospium solution is maintained in the rat bladder for a period of 10-30 minutes. At the end of that period the solution is expelled and the CMG measured.

Data set [8] relates to human subject. Kind of data set: Intravesical instillation of trospium chloride in human female subjects. The data set is classed as in vivo. The conditions noted are these: 0.5 mcg/ml twice daily intravesical. As for the experimental part: A human subject, and weighing approximately 70 kg, presents with a sense of urgency and frequency to urinate, although they are not incontinent. The subject experiences pain and other pelvic discomfort, however, while attempting to urinate. Trospium chloride at a concentration of 0.5 mcg/ml is administered twice daily by intravesical instillation to the subject for a total dose of 2.0 mg trospium chloride per day. The dosing regimen is continued for six (6) weeks.
A human subject, and weighing approximately 60 kg, presents with incontinence. Trospium chloride at a concentration of 0.5 mcg/ml is administered twice daily by intravesical instillation to the subject for a total dose of 1.6 mg trospium chloride per day. The dosing regimen is continued for eight (8) months.

On to pentosan polysulfate sodium, for which the side effects entry in data set [1] (oral Elmiron) is on record as “primarily gastrointestinal discomfort, although some patients experienced hair loss”. In addition, the “patients treated whose symptoms improved” value in data set [1] (oral, clinical trials, interstitial cystitis) is listed as 38%.

On to `C[N+](C)(C)CCOC(N)=O` [carbachol], for which the “direct effect on interstitial cystitis” value in data set [2] (intravesical) is “decreased”.

For `C[S+](C)[O-]` [DMSO, dimethyl sulfoxide], the “side effect of long-term treatment” value in data set [3] is on record as “cataracts”. In data set [4], the “average duration of significant pain relief” value was “about 10 months”; the “duration of garlic-like taste and odor on the breath and skin after treatment” value is given as “up to 72 hours”; the “patients experiencing significant pain relief” value is given as “About 50%”.

For the compound `O=C(O[C@H]1C[C@H]2CC[C@@H](C1)[N+]21CCCC1)C(O)(c1ccccc1)c1ccccc1` [trospium chloride], the “absorption into the systemic circulation” value in data set [5] is “little or no absorption”. Further, in data set [6] (in vivo), the metabolism entry was “minimally metabolized” and the protein binding result is on record as “not highly protein-bound”. For the same compound, the plasma half-life entry in data set [6] (oral 20 mg tablets) is listed as “about 20 hrs”. In addition, in data set [6] (oral), the “excreted through the feces” value is listed as 85.2%; the “excreted through urine (tubular secretion)” value is given as 5.8%; the recognized side effects entry was “dry mouth, constipation, headache urinary retention and dry eyes”. Also, in data set [7], the “acetic-acid induced bladder overactivity” value was “significantly suppressed” and the “bladder contractions during voiding” value is given as “without affecting”. For the same compound, in data set [8] (1.6 mg per day, eight months, incontinence), the “urge, frequency and incontinence episodes” value is “significant reduction”. Further, the “pain when attempting to urinate” value in data set [8] (2.0 mg per day, six weeks, urgency, frequency, pain) is “no longer experiences pain”. In data set [2] (intravesical), the “effect of intravesical trospium after pre treatment of capsaicin or resiniferatoxin” value is “not blocked” and the “direct effect on interstitial cystitis” value is reported as “no direct effect”. Further, the “effect on the inhibitory effect of carbachol” value in data set [2] (low dose of trospium) is given as “completely blocked”.
